Assay results as given in article PMC13183915, “A platinum butterfly effect: small changes turn an anticancer drug into a non-toxic metalloantibiotic with in vivo efficacy” (npj Antimicrobials and Resistance, 2026).
Several values for one entry are separate records, joined by “and”; a condition that tells them apart may be missing. Equal entries are not always repeated.

Experiments:
MRSA NRS 129 = experiment: Broth microdilution MIC, MRSA NRS 129; assay type: cell-based, S. aureus; settings: MRSA NRS 129
Experimental: (§1) The data is given in supporting information (Table S5). Before starting the experiment, a single colony was picked from MHA plate, inoculated in MHBII and incubated overnight at 37 °C with shaking for 18–24 h to get the starter culture. Antibiotic susceptibility testing was conducted according to the CLSI (Clinical & Laboratory Standards Institute) guidelines using the broth microdilution assay. 10 mg/mL stock solutions of test compounds were prepared in DMSO. Bacterial cultures were inoculated in MHBII and optical density (OD) was measured at 600 nm, followed by dilution to achieve ~10^6 CFU/mL. The compounds were tested from 64 to 0.5 mg/L in two-fold serial diluted fashion with 2.5 μL of each concentration added to well of a 96-well round bottom microtiter plate. Later, 97.5 μL of bacterial suspension was added to each well containing either test compound or appropriate controls. […] The MIC is defined as the lowest concentration of the compound at which there is absence of visible growth. For each test compound, MIC determinations were carried out independently three times using duplicate samples.

MRSA NRS 198 = experiment: Broth microdilution MIC, MRSA NRS 198; assay type: cell-based, S. aureus; settings: MRSA NRS 198
Experimental: as §1

[1] = tested on: RecA-GFP (B. subtilis UG10); experiment: Localization of RecA-GFP (DNA damage reporter); assay type: cell-based, Bacillus subtilis; settings: Pt1 3.125 µM, Pt8 25 µM, CisPt 100 µM; strongest after 10 min
Experimental: To confirm whether the compounds induce DNA damage in bacterial cells, the localization of RecA was assessed. RecA is part of the bacterial SOS response to DNA damage. It is a DNA-associated protein that recognizes single-stranded DNA, which occurs as a consequence of strand breaks. If strand breaks are present, RecA accumulates at the damaged sites, appearing as foci or elongated structures. Since the RecA response is strongest shortly after stress induction, we additionally examined a 10 min timepoint in this assay.
(§2) B. subtilis strains were grown in LB containing appropriate inducer concentrations as specified in Table S10. After reaching an OD600 of 0.3, cultures were split and treated with antibiotics. Samples were withdrawn after 30 and 60 min of treatment, spotted on glass slides covered with 1% agarose films, and immediately imaged.

Bacillus subtilis MW168 = experiment: MIC assay, B. subtilis MW168; assay type: cell-based; settings: B. subtilis MW168
MSSA ATCC 29213 = experiment: Broth microdilution MIC, MSSA ATCC 29213; assay type: cell-based, S. aureus
Experimental: as §1

[2] = Stability by 1H and 195Pt NMR; assay type: physicochemical
Experimental: Measurements were repeated after the 24 h and 48 h of incubations at 37 °C.
Then, 10% D2O was added and 1H NMR was recorded immediately and after 24 h of incubation at 37 °C.

[3] = tested on: MreB (B. subtilis MW10, Pxyl-gfp-mreB); experiment: MreB mobility (cell wall synthesis reporter); assay type: cell-based, Bacillus subtilis; settings: 3.12 µM Pt1, 25 µM Pt8; 30 and 60 min
Experimental: as §2
Figure S7: Fluorescence overlays of B. subtilis MW10 (Pxyl-gfp-mreB). Cultures were treated […]
overlays of two consecutive images captured from the same cells in a 30-second interval.
Images were false-colored in blue and orange with overlapping signal appearing white. Distinct blue and orange spots indicate movement of MreB foci. Entirely white images indicate a stop of MreB moility (vancomycin control). Scale bar 2 µm.
(§3) (1 picture or pasted object on this page, not shown here)

P. aeruginosa ATCC 27853 = experiment: Broth microdilution MIC, P. aeruginosa ATCC 27853; assay type: cell-based, Pseudomonas aeruginosa
Experimental: as §1

[4] = set-up: method as in PMID 34018686; settings: cited from earlier work
MRSA NRS 193 = experiment: Broth microdilution MIC, MRSA NRS 193; assay type: cell-based, S. aureus; settings: MRSA NRS 193
Experimental: as §1

S. aureus ATCC 29213 [5] = experiment: Drug interaction study (chequerboard assay); assay type: cell-based
Experimental: All compounds were freshly prepared for the experiment. […] Following incubation, the fractional inhibitory concentration index (FICI) was calculated with the formula FICI = […], whereby FICA = MIC of drug A in combination/MIC of drug A alone and FICB = MIC of drug B in combination/MIC of drug B alone. A drug combination is considered synergistic when ∑FICI is ≤0.5, indifferent when ∑FICI is >0.5 to 4, and antagonistic when ∑FICI is >4.

[6] = tested on: 36th Passage S.aureus ATCC 29213 in the presence of Pt-1; experiment: microbe, parasite or virus in culture; assay type: cell-based; settings: strain resulting from 36 passages
Experimental: The MICs of the passaged cultures were determined every 3 days and compared to that of wild type S. aureus ATCC 29213. MIC changes were recorded for 36 passages.

A. baumanii BAA 1605 = experiment: Broth microdilution MIC, A. baumannii BAA 1605; assay type: cell-based, Acinetobacter baumannii
Experimental: as §1

E. coli lpxC = settings: lipid A biosynthesis-impaired mutant; cited from earlier work
[7] = tested on: methicillin-sensitive Staphylococcus aureus (MSSA), clinical isolate; experiment: MIC assay, MSSA clinical isolate; assay type: cell-based; settings: MSSA clinical isolate
C. albicans = tested on: C. albicans; set-up: method as in PMID 36311838; settings: cited from earlier work
MRSA NRS 194 = experiment: Broth microdilution MIC, MRSA NRS 194; assay type: cell-based, S. aureus; settings: MRSA NRS 194
Experimental: as §1

[8] = tested on: FtsZ (B. subtilis 2020, Pxyl-gfp-ftsZ); experiment: Localization of FtsZ (cell division reporter); assay type: cell-based, Bacillus subtilis; settings: 3.12 µM Pt1, 25 µM Pt8; 30 and 60 min
Experimental: as §2
Figure S8: Localization of FtsZ in B. subtilis 2020 (Pxyl-gfp-ftsZ). Cultures were treated with
as §3

S. aureus ATCC 29213 [9] = experiment: Post antibiotic effect (PAE); assay type: cell-based; settings: for Time for 1 log10 increase in bacterial cfu count: 1 h exposure
Experimental: Post antibiotic effect (PAE) was determined as follows. […] Following incubation, cultures were centrifuged and washed twice with pre-warmed MHBII to remove any traces of antibiotics. Finally, cells were resuspended in drug-free MHBII and incubated further at 37 °C. Samples were taken every 1 h, serially diluted, and plated on tryptic soy agar (TSA) for enumeration of CFU. […] CFU observed immediately after the removal of the drug, and C in a similarly treated drug-free control.

SMILES: C1=C\CC/C=C\CC/1.[Cl][Pt][Cl] [Pt1]
- MIC (MRSA NRS 129): 0.125 – 0.25 µg/mL and 0.33–0.67 µM
- MIC (MRSA NRS 198): 0.25 µg/mL and 0.67 µM
- RecA accumulation on nucleoids [1]: clear RecA accumulations
- MIC (Bacillus subtilis MW168): 6.25 µM
- MIC (MSSA ATCC 29213; MSSA ATCC 29213): 0.67 µM
- MIC (MSSA ATCC 29213; MSSA ATCC 29213, Table S5): 0.25 µg/mL
- MIC (MSSA ATCC 29213; S.aureus ATCC 29213 (unpassaged), Table S9): 0.0625 µg/mL
- time compound remains intact in aqueous environment (1H-NMR) ([2]; DMSO-d6 with 10% D2O, 37 °C): at least 24 h
- time compound remains intact (NMR) ([2]; approximately 7 mM in DMSO-d6, 37 °C, 1H and 195Pt NMR): at least 48 h
- MreB mobility [3]: neither Pt1 nor Pt8 affected MreB mobility
- MIC (P. aeruginosa ATCC 27853): > 64 µg/mL
- antibacterial activity in human serum [4]: lost its antibacterial activity completely
- MIC (MRSA NRS 193): 0.25 µg/mL and 0.67 µM
- FIC B (S. aureus ATCC 29213 [5]; antibiotic in combination with Pt1 / alone): 1
- FIC (FICA+FICB) (S. aureus ATCC 29213 [5]; combination with Pt1): 2
- Interference (S. aureus ATCC 29213 [5]; combination with Pt1, synergistic ≤0.5, indifferent >0.5 to 4, antagonistic >4): no interaction
- MIC (S. aureus ATCC 29213 [5]; compound alone, Table S8): 0.125 µg/mL
- cross-resistance to other antibiotics [6]: no cross-resistance was observed
- MIC (A. baumanii BAA 1605): > 64 µg/mL
- antibacterial activity (E. coli lpxC): inactive
- MIC [7]: 3.13 to 6.25 µM
- fungal load (C. albicans): reduced the fungal load
- MIC (MRSA NRS 194): 0.125 – 0.25 µg/mL and 0.33–0.67 µM
- localization of FtsZ [8]: remained unaffected
- PAE (S. aureus ATCC 29213 [9]; 1x MIC): ~ 5.5 h
- Time for 1 log10 increase in bacterial cfu count (S. aureus ATCC 29213 [9]; 1x MIC): ~ 8 h
- PAE (S. aureus ATCC 29213 [9]; 5x MIC): ~ 5.5 h
- Time for 1 log10 increase in bacterial cfu count (S. aureus ATCC 29213 [9]; 5x MIC): ~ 8 h
- PAE (S. aureus ATCC 29213 [9]; 10x MIC): ~ 5.5 h
- Time for 1 log10 increase in bacterial cfu count (S. aureus ATCC 29213 [9]; 10x MIC): ~ 8 h
